The text below walks through data of publication PMC9704104, “Towards safer anti-inflammatory therapy: synthesis of new thymol–pyrazole hybrids as dual COX-2/5-LOX inhibitors” (Journal of Enzyme Inhibition and Medicinal Chemistry, 2022).

Type in all cases: biochemical
Assay [1] concerns 5-LOX. Description: In vitro 5-LOX inhibitory assay (Abnova 5-LOX inhibitor screening assay kit).
Assay [2] deals with T1, COX-1 (Ovis aries, UniProt P05979).
T1 construct: purchased Cayman chemicals 560131
T1 sequence (P05979 25-600): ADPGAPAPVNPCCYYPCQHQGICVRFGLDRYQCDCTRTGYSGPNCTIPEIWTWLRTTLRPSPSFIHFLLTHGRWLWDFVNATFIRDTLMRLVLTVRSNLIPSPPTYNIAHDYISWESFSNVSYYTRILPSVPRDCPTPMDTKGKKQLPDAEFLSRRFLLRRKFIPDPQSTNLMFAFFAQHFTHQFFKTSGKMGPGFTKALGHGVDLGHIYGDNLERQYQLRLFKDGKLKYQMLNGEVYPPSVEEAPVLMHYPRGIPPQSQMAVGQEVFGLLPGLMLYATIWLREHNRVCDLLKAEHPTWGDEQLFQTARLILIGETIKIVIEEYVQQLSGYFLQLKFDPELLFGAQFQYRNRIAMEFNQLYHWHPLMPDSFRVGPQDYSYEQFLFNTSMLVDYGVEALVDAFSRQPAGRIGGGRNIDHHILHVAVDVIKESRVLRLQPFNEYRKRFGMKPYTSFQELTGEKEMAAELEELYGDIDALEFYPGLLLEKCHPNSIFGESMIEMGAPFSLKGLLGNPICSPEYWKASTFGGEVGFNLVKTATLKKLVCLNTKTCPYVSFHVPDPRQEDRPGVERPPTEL
In words: In vitro COX-1 inhibitory assay (Cayman colorimetric COX (ovine) inhibitor screening assay kit). To be noted: mean of three replicates ± SD.

For assay [3], the target named is T2, COX-2 (Ovis aries, UniProt P79208).
T2 sequence (P79208 17-603): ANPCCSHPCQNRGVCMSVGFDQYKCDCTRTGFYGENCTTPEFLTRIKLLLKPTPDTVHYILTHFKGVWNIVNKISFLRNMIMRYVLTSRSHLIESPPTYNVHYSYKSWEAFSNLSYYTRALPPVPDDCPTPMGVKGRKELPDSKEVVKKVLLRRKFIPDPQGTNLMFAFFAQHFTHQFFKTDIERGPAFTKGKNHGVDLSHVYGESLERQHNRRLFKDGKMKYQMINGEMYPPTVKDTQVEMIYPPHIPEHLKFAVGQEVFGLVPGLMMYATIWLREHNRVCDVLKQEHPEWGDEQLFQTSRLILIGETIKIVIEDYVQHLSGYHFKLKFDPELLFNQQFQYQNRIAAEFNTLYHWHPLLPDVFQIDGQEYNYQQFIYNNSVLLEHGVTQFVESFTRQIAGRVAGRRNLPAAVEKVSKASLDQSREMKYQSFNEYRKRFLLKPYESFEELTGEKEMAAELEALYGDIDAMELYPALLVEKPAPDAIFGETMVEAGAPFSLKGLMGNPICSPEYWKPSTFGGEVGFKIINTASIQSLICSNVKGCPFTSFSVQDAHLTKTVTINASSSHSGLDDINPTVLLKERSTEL
In words: In vitro COX-2 inhibitory assay (Cayman colorimetric COX (ovine) inhibitor screening assay kit). The procedure: (Page: S20, Supplementary file).
Anti-inflammatory activity
In vitro COX-1 and COX-2 inhibitory assay […]
supplied by Cayman chemicals, Ann Arbor, MI, USA according to reported method 1. The colorimetric COX inhibitor screening assay utilizes the peroxidase component of cyclooxygenase. The peroxidase activity was assayed calorimetrically by monitoring the appearance of oxidized N,N,N',N'-tetramethyl-1,4-phenylenediamine (TMPD) at 590nm. The appearance of reagent was carried out following the instructions […]
The half- maximal inhibitor concentrations (IC50µM) were determined and the selectivity index (SI) values were calculated as IC50 (COX-1)/IC50 (COX-2).
1) Background wells- 160 µL of assay buffer and 10 µL of heme were added to background wells.
2) The 100% Initial activity wells- 150 µL of assay buffer, 10 µL of heme and 10 µL of enzyme (COX-1 or COX-2) were added.
3) Inhibitor well- 150 µL of assay buffer, 10 µL of heme and 10 µL of enzyme were added. […]
10) The absorbance was measured at 590 nm using a plate reader. […]
1) The average absorbance of all samples was determined.
2) The absorbance of background wells was subtracted from absorbance of the 100% Initial activity […]
7) Remove the cover and read the absorbance at 490-500 nm using a plate reader. […]
2) The absorbance of blank wells was subtracted from absorbance of the 100% Initial activity and the […]

Broadly, the IC50 is the concentration that gives 50% inhibition. High values mean a need for much substance, low ones inhibition by little substance.

`Cc1ccc(C(C)C)c(O)c1C=NNC(=O)c1cc(-c2ccccc2)n(-c2ccccc2)n1` [Compound 8d, N'-(2-Hydroxy-3-isopropyl-6-methylbenzylidene)-1,5-diphenyl-1H-pyrazole-3-carbo-hydrazide]: the concentration for half-maximal inhibition (IC50) in assay [1] turned out to be 3.11 ± 0.046 µM; in assay [2], 10.19 ± 0.036 µM; in assay [3] (mean of three replicates ± SD) it was 0.11 ± 0.007 µM. In assay [3] (SI = COX-1 IC50/COX-2 IC50), this compound displayed a Selectivity index of 92.6.
